Assays:
[1] = system: ENR+CD organoids; assay: Primary screen: ATP (CellTiter-Glo 3D, CTG) cell number/viability, 2.5-D 384-well ENR+CD organoids; conditions: primary screen; for Z.CTG: standard z score;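 on all read-outs here: compounds given at plating and again on day 3 over a 6-day differentiation from ENR+CV stem-cell-enriched precursors, ATP measured on day 6, plate median as control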
[2] = system: ENR+CD organoids (ISC to Paneth cell differentiation); assay: Primary screen: CCh-stimulated lysozyme secretion LYZ.S, 2.5-D 384-well ENR+CD organoid differentiation; assay type: cell-based, mouse; conditions: primary screen
Text: (§1) High-throughput screening.

[3] = system: ENR+CD organoids (ISC to Paneth cell differentiation); assay: Primary screen: basal (non-stimulated) lysozyme secretion LYZ.NS, 2.5-D 384-well ENR+CD organoid differentiation; assay type: cell-based, mouse; conditions: primary screen; for Z.LYZ.NS: standard z score
Text: as §1

[4] = dose 0.08 uM, FC vs plate median
[5] = dose 0.40 uM, FC vs plate median
[6] = dose 2.00 uM, FC vs plate median
[7] = dose 10.00 uM, FC vs plate median

## CCCCCCCCCCCCCCCCn1cc[n+](Cc2ccccc2)c1C.[I-] [NH125]
[1]; dose 0.08 uM
  Z.CTG: −0.829
[1]; dose 0.40 uM
  Z.CTG: −1.213
[1]; dose 2.00 uM
  Z.CTG: −2.641
[1]; dose 10.00 uM
  Z.CTG: −4.268
[1]; [4]
  Dose.FC.CTG: −0.347 log2 fold change
[1]; [5]
  Dose.FC.CTG: −0.508 log2 fold change
[1]; [6]
  Dose.FC.CTG: −1.106 log2 fold change
[1]; [7]
  Dose.FC.CTG: −1.787 log2 fold change
[2]; [4]
  Dose.FC.LYZ.S: −0.114 log2 fold change
[2]; [5]
  Dose.FC.LYZ.S: −0.237 log2 fold change
[2]; [6]
  Dose.FC.LYZ.S: −0.358 log2 fold change
[2]; [7]
  Dose.FC.LYZ.S: −0.374 log2 fold change
[3]; dose 0.08 uM
  Z.LYZ.NS: −0.301
[3]; dose 0.40 uM
  Z.LYZ.NS: −1.634
[3]; dose 2.00 uM
  Z.LYZ.NS: −1.904
[3]; dose 10.00 uM
  Z.LYZ.NS: −2.293
[3]; [4]
  Dose.FC.LYZ.NS: −0.035 log2 fold change
[3]; [5]
  Dose.FC.LYZ.NS: −0.188 log2 fold change
[3]; [6]
  Dose.FC.LYZ.NS: −0.219 log2 fold change
[3]; [7]
  Dose.FC.LYZ.NS: −0.263 log2 fold change

## COc1ccc(COc2ccc(Cc3cnc(N)nc3N)cc2OC)cc1 [GW2580]
[1]; dose 0.08 uM
  Dose.FC.CTG (log2 fold change): −0.042
  Z.CTG (standard z score): −0.101
[1]; dose 0.40 uM
  Dose.FC.CTG (log2 fold change): −0.284
  Z.CTG (standard z score): −0.678
[1]; dose 2.00 uM
  Dose.FC.CTG (log2 fold change): 0.029
  Z.CTG (standard z score): 0.068
[1]; dose 10.00 uM
  Dose.FC.CTG (log2 fold change): −0.038
  Z.CTG (standard z score): −0.091
[2]; dose 0.08 uM
  Dose.FC.LYZ.S (log2 fold change): −0.013
[2]; dose 0.40 uM
  Dose.FC.LYZ.S (log2 fold change): 0.020
[2]; dose 2.00 uM
  Dose.FC.LYZ.S (log2 fold change): −0.060
[2]; dose 10.00 uM
  Dose.FC.LYZ.S (log2 fold change): −0.026
[3]; dose 0.08 uM
  Dose.FC.LYZ.NS (log2 fold change): 0.006
  Z.LYZ.NS (standard z score): 0.056
[3]; dose 0.40 uM
  Dose.FC.LYZ.NS (log2 fold change): 0.014
  Z.LYZ.NS (standard z score): 0.118
[3]; dose 2.00 uM
  Dose.FC.LYZ.NS (log2 fold change): −0.060
  Z.LYZ.NS (standard z score): −0.525
[3]; dose 10.00 uM
  Dose.FC.LYZ.NS (log2 fold change): −0.018
  Z.LYZ.NS (standard z score): −0.158

## NC(=O)Nc1sc(-c2ccc(F)cc2)cc1C(N)=O [TPCA-1]
[1]; dose 0.08 uM
  Dose.FC.CTG: −0.061 log2 fold change
  Z.CTG (standard z score): −0.146
[1]; dose 0.40 uM
  Dose.FC.CTG: −0.004 log2 fold change
  Z.CTG (standard z score): −0.010
[1]; dose 2.00 uM
  Dose.FC.CTG: −0.005 log2 fold change
  Z.CTG (standard z score): −0.012
[1]; dose 10.00 uM
  Dose.FC.CTG: −0.531 log2 fold change
  Z.CTG (standard z score): −1.269
[2]; dose 0.08 uM
  Dose.FC.LYZ.S: 0.041 log2 fold change
[2]; dose 0.40 uM
  Dose.FC.LYZ.S: −0.029 log2 fold change
[2]; dose 2.00 uM
  Dose.FC.LYZ.S: −0.054 log2 fold change
[2]; dose 10.00 uM
  Dose.FC.LYZ.S: −0.294 log2 fold change
[3]; dose 0.08 uM
  Dose.FC.LYZ.NS: 0.072 log2 fold change
  Z.LYZ.NS (standard z score): 0.627
[3]; dose 0.40 uM
  Dose.FC.LYZ.NS: −0.047 log2 fold change
  Z.LYZ.NS (standard z score): −0.413
[3]; dose 2.00 uM
  Dose.FC.LYZ.NS: −0.059 log2 fold change
  Z.LYZ.NS (standard z score): −0.514
[3]; dose 10.00 uM
  Dose.FC.LYZ.NS: −0.197 log2 fold change
  Z.LYZ.NS (standard z score): −1.711
